Assay results taken from patent publication US12522594B2, “2-heteroaryl-3-oxo-2,3-dihydropyridazine-4-carboxamides for the treatment of cancer” (Deutsches Krebsforschungszentrum, priority 2017, dated 2026).

Columns and labels:
AHR [1] = biological target: T1, AHR (Homo sapiens, UniProt P35869); assay: In vitro assay 2: agonism in human cell line (transactivation assay, U87 cells, DRE firefly luciferase reporter); type: cell-based; design: host or cells: U87 glioblastoma cells, stably transfected with DRE firefly luciferase and renilla reporter constructs; conditions: no kynurenic acid, 20 hours, read-out: Assay 2: AHR-luc Hum Agonism IC50
T1 sequence (P35869 11-848): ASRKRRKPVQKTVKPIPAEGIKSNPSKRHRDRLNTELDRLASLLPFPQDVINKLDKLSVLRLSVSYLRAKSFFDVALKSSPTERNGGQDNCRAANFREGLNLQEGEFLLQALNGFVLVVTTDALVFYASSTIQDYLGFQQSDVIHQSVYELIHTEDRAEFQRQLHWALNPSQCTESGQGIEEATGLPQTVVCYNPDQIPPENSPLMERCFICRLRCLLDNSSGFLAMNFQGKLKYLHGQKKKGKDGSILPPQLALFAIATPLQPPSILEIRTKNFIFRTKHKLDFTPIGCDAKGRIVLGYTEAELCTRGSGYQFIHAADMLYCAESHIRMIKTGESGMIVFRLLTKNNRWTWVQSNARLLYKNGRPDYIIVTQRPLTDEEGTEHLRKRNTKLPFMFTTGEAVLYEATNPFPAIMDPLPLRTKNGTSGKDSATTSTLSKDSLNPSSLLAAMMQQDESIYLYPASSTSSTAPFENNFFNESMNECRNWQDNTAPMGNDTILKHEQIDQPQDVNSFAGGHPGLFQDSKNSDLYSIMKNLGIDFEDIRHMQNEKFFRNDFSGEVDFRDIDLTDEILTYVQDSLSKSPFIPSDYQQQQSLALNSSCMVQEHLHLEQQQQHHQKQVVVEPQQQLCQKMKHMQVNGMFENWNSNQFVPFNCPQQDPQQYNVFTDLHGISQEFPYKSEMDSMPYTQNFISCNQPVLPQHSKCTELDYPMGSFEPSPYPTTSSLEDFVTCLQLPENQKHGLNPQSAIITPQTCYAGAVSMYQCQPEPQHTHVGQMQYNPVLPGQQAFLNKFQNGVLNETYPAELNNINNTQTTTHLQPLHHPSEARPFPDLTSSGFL
Outline: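 U87 glioblastoma cells with endogenous AHR, stably carrying DRE-driven firefly luciferase and constitutive renilla reporters. 300 uM kynurenic acid served as positive activation control; data normalized to positive and negative controls.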

AHR [2] = biological target: T1, AHR; assay: In vitro assay 1: antagonism in human cell line (transactivation assay, U87 cells prestimulated with kynurenic acid, DRE firefly luciferase reporter); type: cell-based; design: host or cells: U87 glioblastoma cells, stably transfected with DRE firefly luciferase and renilla reporter constructs; conditions: 150 uM kynurenic acid, 20 hours, read-out: Assay 1: AHR-luc Hum Antagonism IC50
Outline: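 U87 glioblastoma cells with endogenous AHR, stably carrying a DRE-driven firefly luciferase reporter and a constitutive renilla reporter. Cells prestimulated with the AHR agonist kynurenic acid before compound addition; data normalized to positive and negative controls.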

| Structure (SMILES) | IC50 (AHR [1]) [µM] | IC50 (AHR [2]) [µM] |
| --- | --- | --- |
| O=C(N[C@H]1CCC[C@@H]1O)c1cc(-c2ccc(Cl)cc2)nn(-c2ccnnc2)c1=O [Example 174, 3-(4-Chlorophenyl)-N-[(1S,2S)-2-hydroxycyclopentyl]-6-oxo-6H-1,4′-bipyridazine-5-carboxamide] | > 20 | 0.0615 |
| C[C@@H](CO)NC(=O)c1cc(-c2ccc(Cl)cc2)nn(-c2ccnnc2)c1=O [Example 177, 3-(4-Chlorophenyl)-N-[(2S)-1-hydroxypropan-2-yl]-6-oxo-6H-1,4′-bipyridazine-5-carboxamide] | > 20 | 0.465 |
| CC(C)(O)CNC(=O)c1cc(-c2ccc(Cl)cc2)nn(-c2ccnnc2)c1=O [Example 178, 3-(4-Chlorophenyl)-N-(2-hydroxy-2-methylpropyl)-6-oxo-6H-1,4′-bipyridazine-5-carboxamide] | > 20 | 0.594 |
| C[C@@H](CO)NC(=O)c1cc(-c2ccc(C#N)cc2)nn(-c2cccnc2)c1=O [Example 179, 6-(4-Cyanophenyl)-N-[(2S)-1-hydroxypropan-2-yl]-3-oxo-2-(pyridin-3-yl)-2,3-dihydropyridazine-4-carboxamide] | > 20 | 0.736 |
| C[C@@H](CO)NC(=O)c1cc(-c2ccc(C(F)F)nc2)nn(-c2cccnc2)c1=O [Example 180, 6-[6-(Difluoromethyl)pyridin-3-yl]-N-[(2S)-1-hydroxypropan-2-yl]-3-oxo-2-(pyridin-3-yl)-2,3-dihydropyridazine-4-carboxamide] | > 20 | 0.794 |
| CC(C)(O)C(NC(=O)c1cc(-c2ccc(Cl)cc2)nn(-c2cncnc2)c1=O)C(F)(F)F (stereo not drawn) [Example 185, 6-(4-Chlorophenyl)-3-oxo-2-(pyrimidin-5-yl)-N-(1,1,1-trifluoro-3-hydroxy-3-methylbutan-2-yl)-2,3-dihydropyridazine-4-carboxamide] | > 20 | 0.0371 |
| O=C(NCC1(O)CC1)c1cc(-c2ccc(C(F)(F)F)cc2)nn(-c2cccnc2)c1=O [Example 188, N-[(1-Hydroxycyclopropyl)methyl]-3-oxo-2-(pyridin-3-yl)-6-[4-(trifluoromethyl)phenyl]-2,3-dihydropyridazine-4-carboxamide] | > 20 | 0.0125 |
| O=C(NCC1(O)CCC1)c1cc(-c2ccc(C(F)(F)F)cc2)nn(-c2cccnc2)c1=O [Example 189, N-[(1-Hydroxycyclobutyl)methyl]-3-oxo-2-(pyridin-3-yl)-6-[4-(trifluoromethyl)phenyl]-2,3-dihydropyridazine-4-carboxamide] | > 20 | 0.00303 |
| C[C@@H](CO)NC(=O)c1cc(-c2ccc(Cl)cc2)nn(-c2cn[nH]c2)c1=O [Example 190, (+)-6-(4-Chlorophenyl)-N-[(2S)-1-hydroxypropan-2-yl]-3-oxo-2-(1H-pyrazol-4-yl)-2,3-dihydropyridazine-4-carboxamide] | > 20 | 0.0656 |
| C[C@@H](CO)NC(=O)c1cc(-c2ccc(N(C)C)cc2)nn(-c2cccnc2)c1=O [Example 191, 6-[4-(Dimethylamino)phenyl]-N-[(2S)-1-hydroxypropan-2-yl]-3-oxo-2-(pyridin-3-yl)-2,3-dihydropyridazine-4-carboxamide] | > 20 | 0.00335 |
| O=C(NCC1(O)CCC1)c1cc(-c2ccc(C(F)(F)F)cc2)nn(-c2cnsc2)c1=O [Example 195, N-[(1-Hydroxycyclobutyl)methyl]-3-oxo-2-(1,2-thiazol-4-yl)-6-[4-(trifluoromethyl)phenyl]-2,3-dihydropyridazine-4-carboxamide] | > 20 | 0.000363 |
| C[C@H](NC(=O)c1cc(-c2ccc(C(F)(F)F)cc2)nn(-c2cnsc2)c1=O)C(C)(C)O [Example 196, N-[(2S)-3-Hydroxy-3-methylbutan-2-yl]-3-oxo-2-(1,2-thiazol-4-yl)-6-[4-(trifluoromethyl)phenyl]-2,3-dihydropyridazine-4-carboxamide] | > 20 | 0.000418 |
| O=C(N[C@H](CO)C(F)(F)F)c1cc(-c2ccc(Cl)cc2)nn(-c2cnsc2)c1=O [Example 198, 6-(4-Chlorophenyl)-3-oxo-2-(1,2-thiazol-4-yl)-N-[(2R)-1,1,1-trifluoro-3-hydroxypropan-2-yl]-2,3-dihydropyridazine-4-carboxamide] | > 20 | 0.000599 |
| O=C(NC[C@H](O)C(F)(F)F)c1cc(-c2ccc(Cl)cc2)nn(-c2cnsc2)c1=O [Example 199, 6-(4-Chlorophenyl)-3-oxo-2-(1,2-thiazol-4-yl)-N-[(2S)-3,3,3-trifluoro-2-hydroxypropyl]-2,3-dihydropyridazine-4-carboxamide] | > 20 | 0.000694 |
| O=C(NCC1(O)CCC1)c1cc(-c2ccc(Cl)cc2)nn(-c2cnsc2)c1=O [Example 200, 6-(4-Chlorophenyl)-N-[(1-hydroxycyclobutyl)methyl]-3-oxo-2-(1,2-thiazol-4-yl)-2,3-dihydropyridazine-4-carboxamide] | > 20 | 0.000734 |
| O=C(N[C@H](CO)CF)c1cc(-c2ccc(Cl)cc2)nn(-c2cnsc2)c1=O [Example 201, 6-(4-Chlorophenyl)-N-[(2R)-1-fluoro-3-hydroxypropan-2-yl]-3-oxo-2-(1,2-thiazol-4-yl)-2,3-dihydropyridazine-4-carboxamide] | > 20 | 0.000823 |
| C[C@@H](NC(=O)c1cc(-c2ccc(C(F)(F)F)cc2)nn(-c2cnn(C)c2)c1=O)C(C)(C)O [Example 202, N-[(2R)-3-Hydroxy-3-methylbutan-2-yl]-2-(1-methyl-1H-pyrazol-4-yl)-3-oxo-6-[4-(trifluoromethyl)phenyl]-2,3-dihydropyridazine-4-carboxamide] | > 20 | 0.000825 |
| O=C(N[C@H](CO)CF)c1cc(-c2ccc(C(F)(F)F)cc2)nn(-c2cnsc2)c1=O [Example 203, N-[(2R)-1-Fluoro-3-hydroxypropan-2-yl]-3-oxo-2-(1,2-thiazol-4-yl)-6-[4-(trifluoromethyl)phenyl]-2,3-dihydropyridazine-4-carboxamide] | > 20 | 0.000852 |
| C[C@@H](CO)NC(=O)c1cc(-c2ccc(C(F)(F)F)cc2)nn(-c2cnsc2)c1=O [Example 205, N-[(2S)-1-Hydroxypropan-2-yl]-3-oxo-2-(1,2-thiazol-4-yl)-6-[4-(trifluoromethyl)phenyl]-2,3-dihydropyridazine-4-carboxamide] | > 20 | 0.00106 |
| C[C@H](NC(=O)c1cc(-c2ccc(C(F)(F)F)cc2)nn(-c2cnn(C)c2)c1=O)C(C)(C)O [Example 206, N-[(2S)-3-Hydroxy-3-methylbutan-2-yl]-2-(1-methyl-1H-pyrazol-4-yl)-3-oxo-6-[4-(trifluoromethyl)phenyl]-2,3-dihydropyridazine-4-carboxamide] | > 20 | 0.00107 |
| O=C(N[C@H](CO)C1CC1)c1cc(-c2ccc(C(F)(F)F)cc2)nn(-c2cnsc2)c1=O [Example 207, N-[(1S)-1-Cyclopropyl-2-hydroxyethyl]-3-oxo-2-(1,2-thiazol-4-yl)-6-[4-(trifluoromethyl)phenyl]-2,3-dihydropyridazine-4-carboxamide] | > 20 | 0.00121 |
| CC(C)(O)CNC(=O)c1cc(-c2ccc(C(F)(F)F)cc2)nn(-c2cnsc2)c1=O [Example 208, N-(2-Hydroxy-2-methylpropyl)-3-oxo-2-(1,2-thiazol-4-yl)-6-[4-(trifluoromethyl)phenyl]-2,3-dihydropyridazine-4-carboxamide] | > 20 | 0.00122 |
| C[C@H](NC(=O)c1cc(-c2ccc(Cl)cc2)nn(-c2cnsc2)c1=O)C(C)(C)O [Example 209, 6-(4-Chlorophenyl)-N-[(2S)-3-hydroxy-3-methylbutan-2-yl]-3-oxo-2-(1,2-thiazol-4-yl)-2,3-dihydropyridazine-4-carboxamide] | > 20 | 0.00124 |
| O=C(N[C@H](CO)C(F)(F)F)c1cc(-c2ccc(C(F)(F)F)cc2)nn(-c2cn[nH]c2)c1=O [Example 212, 3-Oxo-2-(1H-pyrazol-4-yl)-N-[(2R)-1,1,1-trifluoro-3-hydroxypropan-2-yl]-6-[4-(trifluoromethyl)phenyl]-2,3-dihydropyridazine-4-carboxamide] | > 20 | 0.00169 |
